Laboratory results as given in PubChem BioAssay AID1963449 (Molecular Pharmacology Branch, DTP, NCI, 2024).
Several values for one entry are separate records, joined by “and”; a condition that tells them apart may be missing. Identical values can stand only once.

Test system: 596521-263-R-J1-PDC complex spheroid growth
Assay: Anticancer human tumor 596521-263-R-J1-PDC patient-derived soft tissue sarcoma cell line growth inhibition [Asc]
Settings: for viability, T/C: stronger effect = lower value
How it was run: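 Stromal components (HUVEC and hMSC) are co-assembled with the cancer cells into multicellular spheroids. Drugs are then added singly or paired, at concentrations falling by half-log increments from a clinically achievable maximum, capped at 10 microM without known Cmax.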

[1] = curve of first compound, second compound 0.00949 µM
[2] = curve of first compound, second compound 0.03 µM
[3] = curve of first compound, second compound 0.0949 µM
[4] = curve of first compound, second compound 0.3 µM
[5] = curve of first compound, second compound 0.949 µM
[6] = curve of first compound, second compound 3 µM
[7] = second compound 0.00949 µM, first compound 0.00949 µM
[8] = second compound 0.00949 µM, first compound 0.03 µM
[9] = second compound 0.00949 µM, first compound 0.0949 µM
[10] = second compound 0.00949 µM, first compound 0.3 µM
[11] = second compound 0.03 µM, first compound 0.00949 µM
[12] = second compound 0.03 µM, first compound 0.03 µM
[13] = second compound 0.03 µM, first compound 0.0949 µM
[14] = second compound 0.03 µM, first compound 0.3 µM
[15] = second compound 0.0949 µM, first compound 0.00949 µM
[16] = second compound 0.0949 µM, first compound 0.03 µM
[17] = second compound 0.0949 µM, first compound 0.0949 µM
[18] = second compound 0.0949 µM, first compound 0.3 µM
[19] = second compound 0.3 µM, first compound 0.00949 µM
[20] = second compound 0.3 µM, first compound 0.03 µM
[21] = second compound 0.3 µM, first compound 0.0949 µM
[22] = second compound 0.3 µM, first compound 0.3 µM
[23] = second compound 0.949 µM, first compound 0.00949 µM
[24] = second compound 0.949 µM, first compound 0.03 µM
[25] = second compound 0.949 µM, first compound 0.0949 µM
[26] = second compound 0.949 µM, first compound 0.3 µM
[27] = second compound 3 µM, first compound 0.00949 µM
[28] = second compound 3 µM, first compound 0.03 µM
[29] = second compound 3 µM, first compound 0.0949 µM
[30] = second compound 3 µM, first compound 0.3 µM
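Note: spheroids exposed to compounds for 7 days.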

In the case of `Cc1nc(N2CCC3(CC2)COC(C)C3N)c(CO)nc1Sc1ccnc(N)c1Cl` (stereo not drawn) + CCN1C(C(=O)NC23CCC(C(=O)O)(CC2)CC3)C(c2cccc(Cl)c2F)C2(C(=O)Nc3cc(Cl)ccc32)C12CCCCC2, the IC50 [1] is reported as greater than 3000 nM, the IC50 [2] is reported as greater than 3000 nM and the IC50 [3] is reported as greater than 3000 nM. For the same compound, the IC50 [4] was greater than 3000 nM, the IC50 [5] was greater than 3000 nM and the IC50 [6] was greater than 3000 nM. For the same compound, the viability, T/C [7] was 97.8%, the viability, T/C [8] was 92.9% and the viability, T/C [9] was 87.7%. It also gave a viability, T/C [10] of 84.5%, a viability, T/C (second compound 0.00949 µM, first compound 0.949 µM) of 78.6% and a viability, T/C (second compound 0.00949 µM, first compound 3 µM) of 67.8%. The viability, T/C [11] was 92.5%, the viability, T/C [12] was 99.1% and the viability, T/C [13] was 104%. It also gave a viability, T/C [14] of 88.3%, a viability, T/C (second compound 0.03 µM, first compound 0.949 µM) of 81.2% and a viability, T/C (second compound 0.03 µM, first compound 3 µM) of 66.2%. For the same compound, the viability, T/C [15] was 101%, the viability, T/C [16] was 92.9% and the viability, T/C [17] was 87.4%. The viability, T/C [18] was 91.3%, the viability, T/C (second compound 0.0949 µM, first compound 0.949 µM) was 80% and the viability, T/C (second compound 0.0949 µM, first compound 3 µM) was 69.3%. The viability, T/C [19] was 101%, the viability, T/C [20] was 95% and the viability, T/C [21] was 96.5%. For the same compound, the viability, T/C [22] was 91.5%, the viability, T/C (second compound 0.3 µM, first compound 0.949 µM) was 83.8% and the viability, T/C (second compound 0.3 µM, first compound 3 µM) was 69.3%. It also gave a viability, T/C [23] of 90.8%, a viability, T/C [24] of 101% and a viability, T/C [25] of 100%. It also gave a viability, T/C [26] of 91.5%, a viability, T/C (second compound 0.949 µM, first compound 0.949 µM) of 90.1% and a viability, T/C (second compound 0.949 µM, first compound 3 µM) of 73.8%. For the same compound, the viability, T/C [27] was 82.6%, the viability, T/C [28] was 81.6% and the viability, T/C [29] was 82.1%. For the same compound, the viability, T/C [30] was 86.1%, the viability, T/C (second compound 3 µM, first compound 0.949 µM) was 65.8% and the viability, T/C (second compound 3 µM, first compound 3 µM) was 58.2%.

With `O=C(c1cc(Cc2n[nH]c(=O)c3ccccc23)ccc1F)N1CCN(C(=O)C2CC2)CC1` + CNC(C)C(=O)NC1CN(S(=O)(=O)c2cccc(S(=O)(=O)N3CCC4CCC(C(=O)NC(c5ccccc5)c5ccccc5)N4C(=O)C(NC(=O)C(C)NC)C3)c2)CCC2CCC(C(=O)NC(c3ccccc3)c3ccccc3)N2C1=O the IC50 (curve of first compound, second compound 0.00316 µM) was less than 31.6 nM, the IC50 (curve of first compound, second compound 0.01 µM) was 2080 nM and the IC50 (curve of first compound, second compound 0.0316 µM) was 4760 nM. For the same compound, the IC50 (curve of first compound, second compound 0.1 µM) was 3650 nM, the IC50 (curve of first compound, second compound 0.316 µM) was 2910 nM and the IC50 (curve of first compound, second compound 1 µM) was 2230 nM. For the same compound, the viability, T/C (second compound 0.00316 µM, first compound 0.0316 µM) was 16.1%, the viability, T/C (second compound 0.00316 µM, first compound 0.1 µM) was 14.4% and the viability, T/C (second compound 0.00316 µM, first compound 0.316 µM) was 17.1%. It also gave a viability, T/C (second compound 0.00316 µM, first compound 1 µM) of 14.8%, a viability, T/C (second compound 0.00316 µM, first compound 3.16 µM) of 13.7% and a viability, T/C (second compound 0.00316 µM, first compound 10 µM) of 12.7%. The viability, T/C (second compound 0.01 µM, first compound 0.0316 µM) was 73.9%, the viability, T/C (second compound 0.01 µM, first compound 0.1 µM) was 61.2% and the viability, T/C (second compound 0.01 µM, first compound 0.316 µM) was 60.7%. The viability, T/C (second compound 0.01 µM, first compound 1 µM) was 64.3%, the viability, T/C (second compound 0.01 µM, first compound 3.16 µM) was 36.7% and the viability, T/C (second compound 0.01 µM, first compound 10 µM) was 45.1%. For the same compound, the viability, T/C (second compound 0.0316 µM, first compound 0.0316 µM) was 90.9%, the viability, T/C (second compound 0.0316 µM, first compound 0.1 µM) was 84.4% and the viability, T/C (second compound 0.0316 µM, first compound 0.316 µM) was 87.2%. The viability, T/C (second compound 0.0316 µM, first compound 1 µM) was 71.8%, the viability, T/C (second compound 0.0316 µM, first compound 3.16 µM) was 54.6% and the viability, T/C (second compound 0.0316 µM, first compound 10 µM) was 42.4%. For the same compound, the viability, T/C (second compound 0.1 µM, first compound 0.0316 µM) was 79.1%, the viability, T/C (second compound 0.1 µM, first compound 0.1 µM) was 73.4% and the viability, T/C (second compound 0.1 µM, first compound 0.316 µM) was 75.5%. For the same compound, the viability, T/C (second compound 0.1 µM, first compound 1 µM) was 78.1%, the viability, T/C (second compound 0.1 µM, first compound 3.16 µM) was 51.7% and the viability, T/C (second compound 0.1 µM, first compound 10 µM) was 37.7%. It also gave a viability, T/C (second compound 0.316 µM, first compound 0.0316 µM) of 77.4%, a viability, T/C (second compound 0.316 µM, first compound 0.1 µM) of 79.2% and a viability, T/C (second compound 0.316 µM, first compound 0.316 µM) of 80.5%. The viability, T/C (second compound 0.316 µM, first compound 1 µM) was 72.4%, the viability, T/C (second compound 0.316 µM, first compound 3.16 µM) was 48.4% and the viability, T/C (second compound 0.316 µM, first compound 10 µM) was 36%. For the same compound, the viability, T/C (second compound 1 µM, first compound 0.0316 µM) was 68.7%, the viability, T/C (second compound 1 µM, first compound 0.1 µM) was 71.5% and the viability, T/C (second compound 1 µM, first compound 0.316 µM) was 61.7%. For the same compound, the viability, T/C (second compound 1 µM, first compound 1 µM) was 69.1%, the viability, T/C (second compound 1 µM, first compound 3.16 µM) was 42.3% and the viability, T/C (second compound 1 µM, first compound 10 µM) was 31.3%.

`NC(=O)C(=Cn1cnc(-c2cc(C(F)(F)F)cc(C(F)(F)F)c2)n1)c1cncnc1` + CCN1C(C(=O)NC23CCC(C(=O)O)(CC2)CC3)C(c2cccc(Cl)c2F)C2(C(=O)Nc3cc(Cl)ccc32)C12CCCCC2 gave an IC50 [1] of 32.9 nM, an IC50 [2] of 33.6 nM and an IC50 [3] of 37.4 nM. It also gave an IC50 [4] of 29.4 nM, an IC50 [5] of 35.1 nM and an IC50 [6] of 28.2 nM. The viability, T/C (second compound 0.00949 µM, first compound 0.000949 µM) was 92%, the viability, T/C (second compound 0.00949 µM, first compound 0.003 µM) was 97.2% and the viability, T/C [7] was 68.5%. It also gave a viability, T/C [8] of 61.4%, a viability, T/C [9] of 15.4% and a viability, T/C [10] of 10.3%. The viability, T/C (second compound 0.03 µM, first compound 0.000949 µM) was 102%, the viability, T/C (second compound 0.03 µM, first compound 0.003 µM) was 96.3% and the viability, T/C [11] was 78.8%. For the same compound, the viability, T/C [12] was 56.8%, the viability, T/C [13] was 20.4% and the viability, T/C [14] was 11.5%. For the same compound, the viability, T/C (second compound 0.0949 µM, first compound 0.000949 µM) was 112%, the viability, T/C (second compound 0.0949 µM, first compound 0.003 µM) was 108% and the viability, T/C [15] was 87.8%. It also gave a viability, T/C [16] of 61.4%, a viability, T/C [17] of 17.1% and a viability, T/C [18] of 10.3%. The viability, T/C (second compound 0.3 µM, first compound 0.000949 µM) was 127%, the viability, T/C (second compound 0.3 µM, first compound 0.003 µM) was 91.7% and the viability, T/C [19] was 77.3%. It also gave a viability, T/C [20] of 56.6%, a viability, T/C [21] of 18% and a viability, T/C [22] of 8.14%. The viability, T/C (second compound 0.949 µM, first compound 0.000949 µM) was 104%, the viability, T/C (second compound 0.949 µM, first compound 0.003 µM) was 102% and the viability, T/C [23] was 79.6%. It also gave a viability, T/C [24] of 61%, a viability, T/C [25] of 16.3% and a viability, T/C [26] of 11.4%. It also gave a viability, T/C (second compound 3 µM, first compound 0.000949 µM) of 88.2%, a viability, T/C (second compound 3 µM, first compound 0.003 µM) of 88.3% and a viability, T/C [27] of 74.3%. It also gave a viability, T/C [28] of 48.4%, a viability, T/C [29] of 22% and a viability, T/C [30] of 9.41%.

In the case of `NC1CCC(NC2CC2c2ccccc2)CC1` (stereo not drawn), the viability, T/C (compound 0.000316 µM) is reported as 92.5% and 90.7%, the viability, T/C (compound 0.001 µM) is reported as 87% and 79.9% and the viability, T/C (compound 0.00316 µM) is reported as 90% and 91.5%. The viability, T/C (compound 0.01 µM) was 95.4% and 94.3%, the viability, T/C (compound 0.0316 µM) was 99.2% and 85.7% and the viability, T/C (compound 0.1 µM) was 88.1% and 89.4%. It also gave an IC50 (curve of compound) greater than 100 nM.
